How the values were obtained:
ArcTRAP mice = experiment: ArcTRAP labeling, background recombination; assay type: in vivo, mouse; settings: novel aqueous formulation of 4TM, reduced dosage
From the text: Male ArcTRAP (ArcCreER+/−, Ai14+/−) mice were used for study. 6-7 week old ArcTRAP mice were handled and injected with saline daily for at least 5 days prior to the experiment (including the home cage controls) to minimize the labeling due to handling and injections. The mice were 7-8 weeks old at the time of behavioral labeling. […] The home cage control group remained in their home cage for the whole period. All the chambers were cleaned with 70% ethanol between trials. On experimental day 2, all mice received 5 mg/kg 4TM (IP injection) 3 hours after the behavioral challenge to enable TRAP labeling. All groups, including the home cage controls, received 4-hyroxytamoxifen injections at the same time of the day (2-3 PM). The bedding of all cages were refreshed daily for 48 hours to prevent 4TM retake. All the labeled mice were kept in their home cage for an additional 10 days to allow the full expression of tdTomoto before perfusion.
10 mg of 4TM (Sigma H6278) was first dissolved in 250 μl DMSO. This stock is first diluted in 5 ml of saline containing 2% Tween 80 and then diluted 1:1 again with saline. The final injectable solution contained: 1 mg/ml 4TM, 1% Tween 80 and 2.5% DMSO in saline.

mPFC of Arc-rTag mice = experiment: Activity-dependent ribosome profiling of mPFC (microarray, qPCR); assay type: in vivo, mouse; settings: IP fraction, two weeks after labeling
Procedure: Male Arc-rTag mice were trained and labeled with 4TM with the same protocol used in ArcTRAP labeling. After labeling, the mice were returned and kept in their home cage for 14 days to allow full integration of tagged ribosomes.
Immunoaffinity purification of ribosome RNA from mPFC was carried out similarly to a protocol previously described (Sanz et al, Proc Natl Acad Sci USA, 106:13939-13944 (2009)) with minor modifications. For preparation of anti-GFP-conjugated dynabeads, for each sample 50 μl protein G dynabeads (Life Technologies) was first washed with PBST and then incubated with 2 μl anti-GFP antibody (Abcam, ab290) in a total volume of 200 μl PBST. […] RNA samples (all at 100 ng per sample) were processed at the Stanford Protein and Nucleic Acid Biotechnology Facility by one-cycle target preparation, labeling and hybridization to Mouse Gene 2.0 ST Array (Affymetrix), according to the manufacturer's protocol and analyzed by Affymetrix Transcriptiome Analysis Console.
For qPCR analysis, RNA was reverse transcribed using the ABI high capacity cDNA synthesis kit and used in quantitative PCR reactions containing SYBR-green fluorescent dye (ABI). Relative expression of mRNAs was determined after normalization with TBP levels using the ΔΔCt method. […]

Row | Compound | background recombination in ArcTRAP line (ArcTRAP mice) | Npas4 transcript enrichment in cocaine-activated cells compared to shock-activated cells (mPFC of Arc-rTag mice) [fold]
1 | 4-hydroxytamoxifen [4TM] | eliminate the background recombination | 
2 | COC(=O)[C@H]1[C@@H](OC(=O)c2ccccc2)C[C@@H]2CC[C@H]1N2C [cocaine] |  | 3
